Assay results: patent publication US6020373A, “Chelate derivatives as protectors against tissue injury” (Eastern Virginia Medical School, priority 1997, dated 2000)
Entries after “also recorded” stand apart in the source; their conditions may differ.

Key:
[1] = tested on: blood urea nitrogen levels (BUN); assay: Effect on renal toxicity of doxorubicin (blood urea nitrogen); conditions: 27 days, FIG. 3; for prevention of doxorubicin-induced BUN increase: 7 mmole/kg IP one hour before 25 mg/kg doxorubicin into tail vein
Mice = assay: in vivo; conditions: IP, mice; for LD50: 12 mice at each level, LL and UL confidence limits in own columns; for MTD (maximum tolerated dose): highest dose without evident toxic symptoms such as coma, convulsions, or death
Protocol: (§1) For all biological studies, the substances were dissolved in water and brought to pH 7. […] Preliminary determination of the approximate toxicity level of the substances was by intraperitoneal (IP) injection of increasing doses into individual Swiss-Webster female mice until toxicity was evident. The maximum tolerated dose was the highest dose given without evident toxic symptoms such as coma, convulsions, or death. The LD 50 (IP) was determined by using at least three doses in 12 mice at each level, bracketing the approximate LD 50. The mice were followed for at least one week and examined for weight changes, general condition, and behavior. The LD 50 with lower and upper confidene iits was calculated from the data.

B16F1 malignant melanoma = assay: Effect on doxorubicin-caused tumor growth lag; type: in vivo, C57Bl/6 mice; conditions: IP 30 minutes before doxorubicin 15 mg/kg IP; FIG. 4
Protocol: For this assay, the B16F1 malignant melanoma which grows in isologous C57Bl/6 mice was used. […] When the tumors reached an average of 6-8 mm diameter, they were placed in closely matched groups of 12 with similar average size tumors. The groups were injected intraperitoneally with either saline or MPEDTA, followed 30 minutes later by doxorubicin 15 mg/kg IP or saline. Tumor volumes were assessed by daily caliper measreients m two orthogonal planes. Tumor length is defined as the diameter in the plane parallel to the body, while width is defined as the diameter perpendicular to the body. Diameter product (in mm^2) was used as the index of tumor growth. The tumor areas were averaged and plotted vs. time to show growth delay as a function of the various treatments. When the average area reached […], the mice were killed by cervical dislocation. The results are in FIG. 4. The solid circles indicate the groups receiving saline-saline or MPEDTA-saline, the solid squares indicate the group receiving saline-doxorubicin, and the solid triangles indicate the group receiving MPEDTA-doxorubicin.

[2] = tested on: radiation damage of right hind leg; assay: Radioprotection in mice: radiation damage scores of the irradiated right hind leg; conditions: for Av Score (average radiation damage score, day 12-24): 30 Gy to right limb, 12 mice per group, IP mmole/kg: IDA 16.7, EDTA 8.6, MPEG 17.9, MIDA 10.3, MPEDTA 7.7, saline 1.54; for Av score (average radiation damage score, day 15-20): 6 mice per group; for effectiveness as radioprotectant: IP, mice, limb irradiation 30-40 Gy
Protocol: The effect of PEG derivatives on tissue tolerance to radiation was tested. Groups of 6 or 12 female Swiss-Webster mice were given IP solutions of the derivatives at a dose of approxfimately one-half of the LD50. Ten minutes later, pentobarbital (PB) 0.262 mmole/kg was given IP, and twenty minutes after the first injection, the right hind leg only was irradiated with 30, 35 or 40 Gy using the Philips RT-250 unit operated under the following conditions: 200 kVp, 20 mA, 0.2 mm Cu added filtration, HVL 0.57 mm Cu, dose rate of 1.834 Gy/min. Mice were irradiated in groups of 6 or 12, and their legs were arranged within a 20×24 cm aperture cone at a 50 cm target-to-skin distance such that all their legs were within a 95% isodose. The output of the X-ray unit was calibrated using a Capintec PT-06C Farmer chamber. Controls received only PB and 0.4 ml normal saline in place of the drug.
The mice were examed daily by two independent observers for 24 days, and the limbs were scored for radiation damage graded on a scale of 0 to 3.5 according to criteria previously established (Fowler, et al., Int. J. Rad. Biol., 9:241-252, 1964). Briefly, a score of 1 corresponds to definite reddening of the foot compared to normal and a score of 2 is marked moist desquamation, loss of hair and skin, and sticking together of toes.

[3] = tested on: tissue injury, such as myocardial ischemia-reperfusion injury; conditions: in vivo; cited from earlier work
[4] = in vivo; cited from earlier work
in vivo = conditions: mouse, in vivo, ip
Protocol: as §1

[5] = 35 Gy, IP mmole/kg: EDTA, DTPA, MPEDTA, MPDTP 8.0, EDTAE 1.0, MPEDTAE, MPDTE 2.0, saline 2.36
[6] = 40 Gy, IP mmole/kg: EDTAE, DTPA ester, MPDTE 1.0, MPEDTAE 2.0, MPEDTA 8.0, saline 2.93

COc1cccc2c1C(=O)c1c(O)c3c(c(O)c1C2=O)C[C@@](O)(C(=O)CO)C[C@@H]3O[C@H]1C[C@H](N)[C@H](O)[C@H](C)O1 [Doxorubicin, doxorubicin]
BUN compared with the untreated control group ([1]; 25 mg/kg doxorubicin into tail vein): markedly increased BUN

Methoxypolyethlene Glycol Amide with EDTA [MPEDTA]
LD50 (Mice): 12.5 mmol/kg | MTD (maximum tolerated dose) (Mice): 8 mmol/kg | effect on tumoricidal effect of / tumor growth lag produced by doxorubicin (B16F1 malignant melanoma): clearly did not interfere with the tumoricidal effect of doxorubicin; also recorded: lack of effect | prevention of doxorubicin-induced BUN increase [1]: completely prevented | Av Score (average radiation damage score, day 12-24) [2]: 0.24 | Av score (average radiation damage score, day 15-20) [2, 5]: 1.50 | Av score (average radiation damage score, day 15-20) [2, 6]: 1.67 | effectiveness as radioprotectant [2]: extremely effective; also recorded: very effective in reducing or preventing damage from radiation or doxorubicin

Methoxypolyethyene Glycol Amide with DTPA. Calcium Sodium Salt [MPDTP]
Av score (average radiation damage score, day 15-20) [2, 5]: 1.21

CC(=O)N(O)CCCCCNC(=O)CCC(=O)N(O)CCCCCNC(=O)CCC(=O)N(O)CCCCCN [deferoxamine (DEF), deferoxamine]
effectiveness in reducing tissue injury [3]: some effectiveness in reducing tissue injury | excretion / circulation lifetime [4]: rapid excretion

Methoxypolyethylene Glycol Iminodiacetate [MIDA]
LD50 (Mice): 20.6 mmol/kg | MTD (maximum tolerated dose) (Mice): 8 mmol/kg | Av Score (average radiation damage score, day 12-24) [2]: 0.67 | effectiveness as radioprotectant [2]: moderately effective | ANOVA comparison of average scores between groups ([2]; average radiation damage scores, Tables II and III): little difference

Metyl Ester of MPEDTA [MPEDTAE]
Av score (average radiation damage score, day 15-20) [2, 5]: 0.88 | Av score (average radiation damage score, day 15-20) [2, 6]: 1.45 | effectiveness as radioprotectant [2]: also effective in protection from tissue injury

O=C(O)CN(CCN(CC(=O)O)CC(=O)O)CC(=O)O [EDTA, ethylene-diamine tetraacetic acid]
MTD (in vivo): 8000 µmol/kg | prevention of doxorubicin-induced BUN increase [1]: not

COC(=O)CN(CCN(CC(=O)OC)CC(=O)OC)CCN(CC(=O)OC)CC(=O)OC [DTPA methyl ester]
MTD (in vivo): 1000 µmol/kg | Av score (average radiation damage score, day 15-20) [2, 6]: 2.50 | effectiveness as radioprotectant [2]: not effective

O=C(O)CNCC(=O)O [IDA, iminodiacetate]
LD50 (in vivo): 33100 µmol/kg | MTD (in vivo): 17000 µmol/kg | Av Score (average radiation damage score, day 12-24) [2]: 1.19

O=C(O)CN(CCN(CC(=O)O)CC(=O)O)CCN(CC(=O)O)CC(=O)O [DTPA, diethylene triamine pentaacetic acid]
MTD (in vivo): 8000 µmol/kg | Av score (average radiation damage score, day 15-20) [2, 5]: 1.34 | effectiveness as radioprotectant [2]: slightly effective; also recorded: moderately effective
